Laboratory results taken from patent US20110275635A1 (priority 2009, published 2011).
pIC50: −log10 of the molar value. ≈ marks a conversion by molar mass, not a printed value. Where two headings read alike, the source gives them in different places.

Key:
S. pneumoniae = assay: microbe, parasite or virus in culture; assay type: cell-based; conditions: Streptococcus pneumoniae, read-out: MIC (μg/mL) S. pneumoniae
S. aureus MRSA = assay: microbe, parasite or virus in culture; assay type: cell-based; conditions: Staphylococcus aureus, read-out: MIC (μg/mL) S. aureus MRSA
S. aureus = assay: microbe, parasite or virus in culture; assay type: cell-based; conditions: Staphylococcus aureus, read-out: MIC (μg/mL) S. aureus
E. faecium VRE = assay: microbe, parasite or virus in culture; assay type: cell-based; conditions: Enterococcus faecium, read-out: MIC (μg/mL) E. faecium VRE
B. anthracis NADs = B. anthracis NADs (Bacillus anthracis, UniProt Q81RP3); assay type: biochemical
Chain of B. anthracis NADs (Q81RP3 whole entry, looked up): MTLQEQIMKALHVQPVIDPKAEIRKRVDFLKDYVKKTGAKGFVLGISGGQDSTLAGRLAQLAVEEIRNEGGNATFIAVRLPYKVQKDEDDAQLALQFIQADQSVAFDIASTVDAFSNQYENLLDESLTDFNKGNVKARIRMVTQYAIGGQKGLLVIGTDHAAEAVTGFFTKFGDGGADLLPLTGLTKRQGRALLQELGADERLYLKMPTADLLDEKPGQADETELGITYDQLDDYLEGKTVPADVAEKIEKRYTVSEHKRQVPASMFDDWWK

[1] = In vivo toxicity, maximum tolerated dose; conditions: female, BALB/c, mouse, intraperitoneal
E. faecalis = assay: microbe, parasite or virus in culture; assay type: cell-based; conditions: Enterococcus faecalis, read-out: MIC (μg/mL) E. faecalis
B. cereus = assay: microbe, parasite or virus in culture; assay type: cell-based; conditions: Bacillus cereus, read-out: MIC (μg/mL) B. cereus
[2] = Pharmacokinetics, plasma concentration after intraperitoneal injection
[3] = tested on: Bacillus anthracis Sterne; assay: microbe, parasite or virus in culture; assay type: cell-based
B. anthracis = assay: microbe, parasite or virus in culture; assay type: cell-based; conditions: Bacillus anthracis, read-out: MIC (μg/mL) B. anthracis
hNaMNAT-1 = hNaMNAT-1 (Homo sapiens, UniProt Q9HAN9); assay: Human NAMNAT inhibition in vitro; assay type: biochemical
Chain of hNaMNAT-1 (Q9HAN9 whole entry): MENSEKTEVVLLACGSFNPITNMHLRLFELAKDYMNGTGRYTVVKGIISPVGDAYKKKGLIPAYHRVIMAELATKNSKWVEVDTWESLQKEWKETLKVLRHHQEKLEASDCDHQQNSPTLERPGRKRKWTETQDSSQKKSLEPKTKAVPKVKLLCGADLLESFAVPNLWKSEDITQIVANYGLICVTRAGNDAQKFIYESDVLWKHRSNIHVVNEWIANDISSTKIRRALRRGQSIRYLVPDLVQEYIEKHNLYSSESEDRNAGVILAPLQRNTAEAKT

HCC1937 = assay: In vitro human breast cancer cell growth inhibition; assay type: cell-based
Hep-G2 = assay: In vitro inhibition of normal human cells; assay type: cell-based; conditions: HepG2
HEK293 = assay: In vitro inhibition of normal human cells; assay type: cell-based
SUM159 = assay: In vitro human breast cancer cell growth inhibition; assay type: cell-based
BEAS-23 = assay: In vitro inhibition of normal human cells; assay type: cell-based; conditions: read-out: In Vitro Inhibition Normal Human Cells (IC50, μM) BEAS-23
IMR90 = assay: In vitro inhibition of normal human cells; assay type: cell-based; conditions: IMR-90
MDA-MB-436 = assay: In vitro human breast cancer cell growth inhibition; assay type: cell-based
[4] = HCC1937 cells, read-out: In Vitro Human Breast Cancer Inhibition (IC50, μM) HCC1937
[5] = SUM159 cells, read-out: In Vitro Human Breast Cancer Inhibition (IC50, μM) SUM159
[6] = MDA-MB-436 cells, read-out: In Vitro Human Breast Cancer Inhibition (IC50, μM) MDA-MB-436

O=C(Nc1ccc([N+](=O)[O-])cc1)Nc1ccc(S(=O)(=O)Nc2ccc(Cl)c(Cl)c2)cc1 [Compound 5824]
MIC (S. pneumoniae): 3.6 µg/mL (≈ 7.48 µM) | MIC (S. aureus MRSA): 5.5 µg/mL (≈ 11.4 µM) | MIC (S. aureus): 10.8 µg/mL (≈ 22.4 µM) | MIC (E. faecium VRE): 10.8 µg/mL (≈ 22.4 µM) | activity against NADs (in words) (B. anthracis NADs): good activities | pIC50 (B. anthracis NADs; read-out: IC50): 5.00 | pIC50 (B. anthracis NADs; read-out: NADs IC50): 5.00 | MTD [1]: 25 mg/kg | MIC (E. faecalis): 14 µg/mL (≈ 29.1 µM) | MIC (B. cereus): 0.78 µg/mL (≈ 1.62 µM) | time to highest plasma drug concentration ([2]; 25 mg/kg (Bid), second dose 8 hr after first, time after first dose): about 12 hours | time to highest plasma drug concentration ([2]; 25 mg/kg (QD), mouse plasma): 2 h | time to highest plasma drug concentration ([2]; 50 mg/kg (QD), mouse plasma): 2 h | activity against B. anthracis (in words) [3]: good activities | MIC ([3]; Bacillus anthracis, read-out: B.a. MIC (μM)): 1.9 µM (≈ 0.915 µg/mL) | MIC (B. anthracis): 1.2 µg/mL (≈ 2.49 µM)

Nc1ccc(NS(=O)(=O)c2ccc(NC(=O)Nc3ccc(Cl)c(Cl)c3)cc2)cc1 [Compound 6010]
IC50 (hNaMNAT-1): > 600 µM | IC50 (HCC1937; [4]): 20 µM | IC50 (Hep-G2): > 200 µM | IC50 (HEK293): > 200 µM | IC50 (SUM159; [5]): 10 µM | IC50 (BEAS-23): > 200 µM | IC50 (IMR90): > 200 µM | IC50 (MDA-MB-436; [6]): 25 µM

O=[N+]([O-])c1cc(S(=O)(=O)NCc2ccco2)ccc1NNC(=S)Nc1cccc(C(F)(F)F)c1 [Compound 6034]
IC50 (hNaMNAT-1): 28 µM | IC50 (HCC1937; [4]): 60 µM | IC50 (Hep-G2): 90 µM | IC50 (HEK293): 176 µM | IC50 (SUM159; [5]): 50 µM | IC50 (BEAS-23): 186 µM | IC50 (IMR90): 148 µM | IC50 (MDA-MB-436; [6]): 70 µM

O=C(Nc1ccc(S(=O)(=O)Nc2ccc(Cl)c(Cl)c2)cc1)Nc1cccc([N+](=O)[O-])c1 [Compound 6333]
MTD [1]: 250 mg/kg

O=C(Nc1ccc(S(=O)(=O)Nc2ccc(Cl)c(Cl)c2)cc1)Nc1ccccc1O [Compound 6399]
IC50 (hNaMNAT-1): 19 µM | IC50 (HCC1937; [4]): 40 µM | IC50 (Hep-G2): 84 µM | IC50 (HEK293): 163 µM | IC50 (BEAS-23): 93 µM | IC50 (IMR90): 181 µM

O=C(Nc1ccc(O)cc1)Nc1ccc(S(=O)(=O)Nc2ccc(Cl)c(Cl)c2)cc1 [Compound 6400]
IC50 (hNaMNAT-1): 13 µM | IC50 (HCC1937; [4]): 95 µM | IC50 (Hep-G2): 112 µM | IC50 (HEK293): > 200 µM | IC50 (SUM159; [5]): 50 µM | IC50 (BEAS-23): > 200 µM | IC50 (IMR90): > 200 µM | IC50 (MDA-MB-436; [6]): 95 µM

CCOc1ccc(NS(=O)(=O)c2ccc(NC(=O)CCC(=O)c3ccccc3)cc2)cc1 [Compound 6484]
MTD [1]: > 500 mg/kg

O=C(Nc1ccc(S(=O)(=O)Nc2ccccc2C(F)(F)F)cc1)Nc1cccc([N+](=O)[O-])c1 [Compound 6572]
IC50 (hNaMNAT-1): > 600 µM | IC50 (HCC1937; HCC1937, read-out: In Vitro Human Breast Cancer Inhibition (IC50, μM) HCC1937): 35 µM | IC50 (SUM159; SUM159, read-out: In Vitro Human Breast Cancer Inhibition (IC50, μM) SUM159): 10 µM | IC50 (MDA-MB-436; MDA-MB-436, read-out: In Vitro Human Breast Cancer Inhibition (IC50, μM) MDA-MB-436): 35 µM
